Experimental data from patent US9067871B2, “Aminotetraline derivatives, pharmaceutical compositions containing them, and their use in therapy” (ABBVIE DEUTSCHLAND GMBH & CO KG, priority 2009, dated 2015).
Structures can show the parent of a compound that is named as a salt. Where two headings read alike, the source gives them in different places.

Key:
human GlyT1c = human GlyT1c (Homo sapiens (Human), UniProt P48067); assay: [3H]-Glycine uptake into recombinant CHO cells expressing human GlyT1; type: cell-based
Sequence of human GlyT1c (P48067 whole entry): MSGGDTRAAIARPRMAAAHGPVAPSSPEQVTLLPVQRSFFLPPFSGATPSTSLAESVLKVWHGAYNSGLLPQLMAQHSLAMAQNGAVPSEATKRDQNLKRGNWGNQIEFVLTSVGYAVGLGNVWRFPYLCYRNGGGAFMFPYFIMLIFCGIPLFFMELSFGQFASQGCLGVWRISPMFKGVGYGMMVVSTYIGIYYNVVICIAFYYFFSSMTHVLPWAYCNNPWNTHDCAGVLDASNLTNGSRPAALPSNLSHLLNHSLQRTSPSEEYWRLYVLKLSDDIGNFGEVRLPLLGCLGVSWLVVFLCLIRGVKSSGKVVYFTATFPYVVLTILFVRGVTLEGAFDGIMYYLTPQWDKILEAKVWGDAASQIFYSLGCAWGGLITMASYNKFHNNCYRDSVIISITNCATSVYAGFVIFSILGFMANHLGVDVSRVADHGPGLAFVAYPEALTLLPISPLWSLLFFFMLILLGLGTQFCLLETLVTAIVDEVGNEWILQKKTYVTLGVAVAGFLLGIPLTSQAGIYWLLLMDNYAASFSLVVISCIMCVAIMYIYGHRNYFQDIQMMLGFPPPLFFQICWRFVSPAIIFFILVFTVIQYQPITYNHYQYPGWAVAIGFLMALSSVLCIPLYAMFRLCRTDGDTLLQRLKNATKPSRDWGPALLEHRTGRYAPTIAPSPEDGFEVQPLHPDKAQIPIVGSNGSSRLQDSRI
Experimental: 1. [^3H]-Glycine uptake into recombinant CHO cells expressing human GlyT1: Human GlyT1c expressing recombinant hGlyT1c—5_CHO cells were plated at 20,000 cells per well in 96 well Cytostar-T scintillation microplates (Amersham Biosciences) and cultured to sub-confluency for 24 h. […] 80 μl HBSS buffer were added, followed by 10 μl inhibitor or vehicle (10% DMSO) and 10 μl [^3H]-glycine (TRK71, Amersham Biosciences) to a final concentration of 200 nM for initiation of glycine uptake. The plates were placed in a Wallac Microbeta (PerkinElmer) and continuously counted by solid phase scintillation spectrometry during up to 3 hours. Nonspecific uptake was determined in the presence of 10 μM Org24598.

human GlyT1c transporter = human GlyT1c transporter (Homo sapiens (Human), UniProt P48067); assay: Radioligand binding assay using recombinant CHO cell membranes expressing human GlyT1; conditions: read-out: radioligand binding Kiapp
Sequence of human GlyT1c transporter (P48067 whole entry): as above
Excerpt: 2. Radioligand binding assays using recombinant CHO cell membranes expressing human GlyT1: […]

[1] = hGlyT1c_5_CHO cells, 200 nM [3H]-glycine
[2] = human GlyT1c-expressing CHO cell membranes

Row | SMILES | IC50 (human GlyT1c; [1]) | Ki (human GlyT1c transporter; [2]) | IC50 (human GlyT1c) | Ki (human GlyT1c transporter)
1 | CCOC(=O)NC1CCc2ccc(OCCNS(=O)(=O)CCC(F)(F)F)cc2C1Cc1ccc(Cl)c(Cl)c1 (centres unmarked) [Example 26, {1-(3,4-Dichloro-benzyl)-7-[2-(3,3,3-trifluoro-propane-1-sulfonylamino)-ethoxy]-1,2,3,4-tetrahydro-naphthalen-2-yl}-carbamic acid ethyl ester] | ≤ 1000 µM | ≤ 10 µM |  | 
2 | CCCS(=O)(=O)NCCOc1ccc2c(c1)C(Cc1ccc(Cl)c(Cl)c1)C(N(C)C)CC2 (centres unmarked) [Example 6] | ≤ 1 µM | ≤ 0.1 µM |  | 
3 | CC(C)(C)OC(=O)NC1CCc2ccc(C#N)cc2C1Cc1ccc(Cl)c(Cl)c1 (centres unmarked) [Example 34, tert-Butyl[7-cyano-1-(3,4-dichlorobenzyl)-1,2,3,4-tetrahydronaphthalen-2-yl]carbamate] | ≤ 1000 µM | ≤ 10 µM |  | 
4 | O=C(NC1CCc2ccc(O)cc2C1Cc1ccc(Cl)cc1)OCc1ccccc1 (centres unmarked) [Example 37, Benzyl [1-(4-chlorobenzyl)-7-hydroxy-1,2,3,4-tetrahydronaphthalen-2-yl]carbamate] | ≤ 100 µM | ≤ 10 µM |  | 
5 | CCS(=O)(=O)CCCOc1ccc2c(c1)C(Cc1cccc(Cl)c1)C(N)CC2 (centres unmarked) [Example 84, 1-(3-Chloro-benzyl)-7-(3-ethanesulfonyl-propoxy)-1,2,3,4-tetrahydro-naphthalen-2-ylamine hydrochloride] |  |  | ≤ 10 µM | ≤ 10 µM
6 | CCOC(=O)NC1CCc2ccc(OCCNS(=O)(=O)CCCF)cc2C1Cc1ccc(Cl)c(Cl)c1 (centres unmarked) [Example 22, {1-(3,4-Dichloro-benzyl)-7-[2-(3-fluoro-propane-1-sulfonylamino)-ethoxy]-1,2,3,4-tetrahydro-naphthalen-2-yl}-carbamic acid ethyl ester] | ≤ 1000 µM | ≤ 10 µM |  | 
7 | CCn1cc(S(=O)(=O)NCCOc2ccc3c(c2)C(Cc2cccc(Cl)c2)C(N)CC3)cn1 (centres unmarked) [Example 66, 1-Ethyl-1H-pyrazole-4-sulfonic acid {2-[7-amino-8-(3-chloro-benzyl)-5,6,7,8-tetrahydronaphthalen-2-yloxy]-ethyl}-amide hydrochloride] |  |  | ≤ 1 µM | ≤ 0.1 µM
8 | CCOC(=O)NC1CCc2ccc(OCCNS(C)(=O)=O)cc2C1Cc1ccc(Cl)c(Cl)c1 (centres unmarked) [Example 12, [1-(3,4-Dichloro-benzyl)-7-(2-methanesulfonylamino-ethoxy)-1,2,3,4-tetrahydronaphthalen-2-yl]-carbamic acid ethyl ester] | ≤ 100 µM | ≥ 10 µM |  | 
9 | CCOC(=O)NC1CCc2ccc(OCCNS(=O)(=O)c3cn(C)cn3)cc2C1Cc1ccc(Cl)c(Cl)c1 (centres unmarked) [Example 2, Ethyl 1-(3,4-dichlorobenzyl)-7-(2-(1-methyl-1H-imidazole-4-sulfonamido)ethoxy)-1,2,3,4-tetrahydronaphthalen-2-ylcarbamate] | ≤ 1 µM | ≤ 0.1 µM |  | 
10 | Cn1cnc(S(=O)(=O)NCCOc2ccc3c(c2)C(Cc2ccc(Cl)c(Cl)c2)C(NC(=O)C(F)(F)F)CC3)c1 (centres unmarked) [Example 18, N-{1-(3,4-Dichloro-benzyl)-7-[2-(1-methyl-1H-imidazole-4-sulfonylamino)-ethoxy]-1,2,3,4-tetrahydro-naphthalen-2-yl}-2,2,2-trifluoro-acetamide] | ≤ 0.1 µM | ≤ 0.01 µM |  | 
11 | NC1CCc2ccc(O)cc2C1Cc1ccc(Cl)c(Cl)c1 (centres unmarked) [Example 35, 7-Amino-8-(3,4-dichlorobenzyl)-5,6,7,8-tetrahydronaphthalen-2-ol trifluoroacetate (salt)] | ≤ 100 µM | ≥ 100 µM |  | 
12 | NC1CCc2ccc(OCCN3CCCS3(=O)=O)cc2C1Cc1cccc(Cl)c1 (centres unmarked) [Example 33, 1-(3-chlorobenzyl)-7-[2-(1,1-dioxidoisothiazolidin-2-yl)ethoxy]-1,2,3,4-tetrahydronaphthalen-2-amine hydrochloride] | ≤ 1 µM | ≤ 1 µM |  | 
13 | Cn1cnc(S(=O)(=O)NCCOc2ccc3c(c2)C(Cc2ccc(Cl)cc2)C(N)CC3)c1 (centres unmarked) [Example 27, 1-Methyl-1H-imidazole-4-sulfonic acid {2-[7-amino-8-(4-chloro-benzyl)-5,6,7,8-tetrahydronaphthalen-2-yloxy]-ethyl}-amide hydrochloride] | ≤ 0.01 µM | ≤ 0.01 µM |  | 

Continued, in another order:

Row | IC50 (human GlyT1c; [1]) | Ki (human GlyT1c transporter; [2]) | SMILES | IC50 (human GlyT1c) | Ki (human GlyT1c transporter)
14 | ≤ 1000 µM | ≤ 10 µM | CCCS(=O)(=O)NCc1ccc2c(c1)C(Cc1ccc(Cl)c(Cl)c1)C(NC(=O)OC(C)(C)C)CC2 (centres unmarked) [Example 39, tert-Butyl[1-(3,4-dichlorobenzyl)-7-{[(propylsulfonyl)amino]methyl}-1,2,3,4-tetrahydronaphthalen-2-yl]carbamate] |  | 
15 | ≤ 100 µM | ≤ 10 µM | NC1CCc2ccc(CNS(=O)(=O)CCCF)cc2C1Cc1ccc(Cl)c(Cl)c1 (centres unmarked) [Example 41, N-{[7-Amino-8-(3,4-dichlorobenzyl)-5,6,7,8-tetrahydronaphthalen-2-yl]methyl}-3-fluoropropane-1-sulfonamide hydrochloride] |  | 
16 | ≤ 1000 µM | ≤ 100 µM | CCOC(=O)NC1CCc2ccc(OCCNS(=O)(=O)c3ccc(Cl)s3)cc2C1Cc1cccc(Cl)c1 (centres unmarked) [Example 51, {1-(3-Chloro-benzyl)-7-[2-(5-chloro-thiophene-2-sulfonylamino)-ethoxy]-1,2,3,4-tetrahydronaphthalen-2-yl}-carbamic acid ethyl ester] |  | 
17 | ≤ 1000 µM | ≤ 10 µM | CCOC(=O)NC1CCc2ccc(OCCNS(=O)(=O)c3cnn(C)c3)cc2C1Cc1ccc(Cl)cc1Cl (centres unmarked) [Example 62, {1-(2,4-Dichloro-benzyl)-7-[2-(1-methyl-1H-pyrazole-4-sulfonylamino)-ethoxy]-1,2,3,4-tetrahydro-naphthalen-2-yl}-carbamic acid ethyl ester] |  | 
18 | ≤ 10 µM | ≤ 1 µM | CCOC(=O)NC1CCc2ccc(OCCNS(=O)(=O)c3cccs3)cc2C1Cc1cccc(Cl)c1 (centres unmarked) [Example 50, {1-(3-Chloro-benzyl)-7-[2-(thiophene-2-sulfonylamino)-ethoxy]-1,2,3,4-tetrahydronaphthalen-2-yl}-carbamic acid ethyl ester] |  | 
19 | ≥ 100 µM | ≤ 10 µM | CCOC(=O)NC1CCc2ccc(OCCNS(=O)(=O)c3cc(C)sc3C)cc2C1Cc1cccc(Cl)c1 (centres unmarked) [Example 60, {1-(3-Chloro-benzyl)-7-[2-(2,5-dimethyl-thiophene-3-sulfonylamino)-ethoxy]-1,2,3,4-tetrahydro-naphthalen-2-yl}-carbamic acid ethyl ester] |  | 
20 | ≤ 1000 µM | ≤ 10 µM | CCOC(=O)NC1CCc2ccc(OCCNS(=O)(=O)c3cnn(CC)c3)cc2C1Cc1cccc(Cl)c1 (centres unmarked) [Example 61, {1-(3-Chloro-benzyl)-7-[2-(1-ethyl-1H-pyrazole-4-sulfonylamino)-ethoxy]-1,2,3,4-tetrahydro-naphthalen-2-yl}-carbamic acid ethyl ester] |  | 
21 | ≤ 10 µM | ≤ 1 µM | Cc1cc(S(=O)(=O)NCCOc2ccc3c(c2)C(Cc2cccc(Cl)c2)C(N)CC3)c(C)s1 (centres unmarked) [Example 69, 2,5-Dimethyl-thiophene-3-sulfonic acid {2-[7-amino-8-(3-chloro-benzyl)-5,6,7,8-tetrahydronaphthalen-2-yloxy]-ethyl}-amide hydrochloride] |  | 
22 | ≤ 100 µM | ≥ 10 µM | CCOC(=O)NC1CCc2ccc(OCCNS(=O)(=O)CC)cc2C1Cc1cccc(Cl)c1 (centres unmarked) [Example 65, [1-(3-Chloro-benzyl)-7-(2-ethanesulfonylamino-ethoxy)-1,2,3,4-tetrahydro-naphthalen-2-yl]-carbamic acid ethyl ester] |  | 
23 | ≤ 10 µM | ≤ 1 µM | Cc1ccc(S(=O)(=O)NCCOc2ccc3c(c2)C(Cc2ccc(Cl)cc2Cl)C(N)CC3)s1 (centres unmarked) [Example 73, 5-Methyl-thiophene-2-sulfonic acid {2-[7-amino-8-(2,4-dichloro-benzyl)-5,6,7,8-tetrahydronaphthalen-2-yloxy]-ethyl}-amide hydrochloride] |  | 
24 | ≤ 1000 µM | ≤ 100 µM | CCCS(=O)(=O)N(C)CCOc1ccc2c(c1)C(Cc1ccc(Cl)cc1)C(NC(=O)OCC)CC2 (centres unmarked) [Example 76, (1-(4-Chloro-benzyl)-7-{2-[methyl-(propane-1-sulfonyl)-amino]-ethoxy}-1,2,3,4-tetrahydronaphthalen-2-yl)-carbamic acid ethyl ester] |  | 
25 | ≤ 1 µM | ≤ 0.1 µM | CCCS(=O)(=O)N(C)CCOc1ccc2c(c1)C(Cc1cccc(Cl)c1)C(N)CC2 (centres unmarked) [Example 79, Propane-1-sulfonic acid {2-[7-amino-8-(3-chloro-benzyl)-5,6,7,8-tetrahydronaphthalen-2-yloxy]-ethyl}-methyl-amide hydrochloride] |  | 
26 | ≥ 100 µM | ≤ 10 µM | CCOC(=O)NC1CCc2ccc(OCCNS(=O)(=O)c3cccs3)cc2C1Cc1ccc(Cl)cc1Cl (centres unmarked) [Example 63, {1-(2,4-Dichloro-benzyl)-7-[2-(thiophene-2-sulfonylamino)-ethoxy]-1,2,3,4-tetrahydronaphthalen-2-yl}-carbamic acid ethyl ester] |  | 
27 | ≥ 100 µM | ≤ 10 µM | CCOC(=O)NC1CCc2ccc(OCCNS(=O)(=O)c3cc(C)cs3)cc2C1Cc1cccc(Cl)c1 (centres unmarked) [Example 54, {1-(3-Chloro-benzyl)-7-[2-(4-methyl-thiophene-2-sulfonylamino)-ethoxy]-1,2,3,4-tetrahydro-naphthalen-2-yl}-carbamic acid ethyl ester] |  | 
28 | ≤ 1 µM | ≤ 1 µM | CCOC(=O)NC1CCc2ccc(OCCNS(=O)(=O)c3cn(C)cn3)cc2C1Cc1cccc(Cl)c1 (centres unmarked) [Example 80, {1-(3-Chloro-benzyl)-7-[2-(1-methyl-1H-imidazole-4-sulfonylamino)-ethoxy]-1,2,3,4-tetrahydro-naphthalen-2-yl}-carbamic acid ethyl ester] |  | 
